# Publication PMC2999418, “Biological Activity and Binding Site Characteristics of the PA1b Entomotoxin on Insects from Different Orders” (Journal of Insect Science, 2007)
# Where two headings read alike, the source gives them in different places.
# How the values were obtained:
# [1] = test system: Sitophilus granarius; assay: Toxicity assay on cereal weevil adults, toxin in food, survival analysis; format: in vivo; conditions: S. granarius Brayard strain
# Protocol: (§1) Cereal weevils (Sitophilus oryzae, S. zeamais and S. granarius, Coleoptera) were reared for more than 10 years in our laboratory on wheat seeds at […] 70% RH. Resistant strains were reared on pea seeds. Tests and survival analysis were performed on adults, as fully described in Louis et al ([2004]).
# (§2) All toxicity assays were carried out using a mixture of PA1b isoforms (98% purity by HPLC). All tests were performed on at least 30 insects for assays and for control test (without toxin), except for the three aphid species (50 insects) and for Trichogramma (more than 300 eggs by assays). When adults were used, the insects were synchronized at the imaginal molt. The statistical analyses were performed using the JMP software (SAS, Grégy-sur-Yerres FRA).
# [2] = test system: Sitophilus oryzae; assay: as above; format: in vivo; conditions: dose-response, PA1b isoform mixture in food, confidence interval in brackets
# Protocol: as §1, §2
# [3] = test system: Sitophilus zeamais; assay: as above; format: in vivo; conditions: S. zeamais LS strain, day 7, confidence interval in brackets
# Protocol: as §1, §2
# [4] = test system: Culex pipiens; assay: Mosquito larval bioassay, toxin added to water; format: in vivo; conditions: 250 µg.ml^-1 of water
# Protocol: The mosquito bioassay was performed on larvae of Culex pipiens (Diptera) in water. The toxin was added directly to the water, and the mortality of L3 larvae was recorded daily.
# as §2
# [5] = molecular target: PA1b binding protein on membrane extracts; assay: 125I-PA1b binding (competition) on insect membrane extracts; parameters: species or system Harmonia axyridis; conditions: H. axyridis membrane extracts; competition with purified 3741 isoform
# Protocol: (§3) The isolation of membrane proteins for binding studies was performed as described by Gressent et al. ([2003]). For PA1b degradation tests, insect extracts were prepared as follows, 1 g of insects were ground with a mortar and pestle in liquid nitrogen. The resulting powder was resuspended in 2 ml of extraction buffer (20 mM Tris-HCl pH 8; 0.25 M sucrose; 2 mM MgCl2). The slurry was centrifuged for 2 min at 1000 g, and the supernatant was stored at -2O°C until required. All the operations were performed at 4°C.
# (§4) The peptidic toxin PA1b-3471 isoform was labelled with I^125 to a specific radioactivity of about 900 Ci.mmor^-1, and then used for binding studies with membrane extracts, according to Gressent et al. ([2003]).
# (§5) PA1b binding activity was present in all insect species, except for the resistant weevil strains and the pea specific pest Bruchus pisorum, regardless of the sensitivity or insensitivity of these insects to PA1b toxicity, as evaluated from our insect bioassays. […] The relative abundance of the binding sites was also slightly different in this group of species, varying from 10 pmol/mg of protein for T. pretiosum to a maximum of 79 pmol/mg of protein for M. persicae.
# [6] = molecular target: PA1b binding protein on membrane extracts; assay: as above; parameters: species or system Tribolium castaneum; conditions: T. castaneum membrane extracts; competition with purified 3741 isoform
# Protocol: as §3, §4, §5
# [7] = molecular target: PA1b binding protein on membrane extracts; assay: as above; parameters: species or system Ephestia kuehniella; conditions: E. kuehniella membrane extracts; competition with purified 3741 isoform
# Protocol: as §3, §4, §5
# [8] = molecular target: PA1b binding protein on membrane extracts; assay: as above; parameters: species or system Trichogramma pretiosum; conditions: T. pretiosum membrane extracts; competition with purified 3741 isoform
# Protocol: as §3, §4, §5
# [9] = molecular target: PA1b binding protein on membrane extracts; assay: as above; parameters: species or system Acyrthosiphon pisum; conditions: A. pisum membrane extracts; competition with purified 3741 isoform
# Protocol: as §3, §4, §5
# [10] = test system: Ephestia kuehniella; conditions: ref Delobel et al 1998; cited from earlier work
# Protocol: Ephestia kuehniella was previously found to be sensitive to the toxin ([Delobel et al 1998]). In contrast, 1000 µg PA1b per g of diet had no effect on the cabbage moth Mamestra brassicae, either on the mortality or on the development and ecdysis of the insects (data not shown).
# [11] = molecular target: PA1b binding protein on membrane extracts; conditions: ref Gressent et al (2003), cited from earlier work
# From the text: Table 1. Affinity (Kd) and relative abundance (Bmax) of the PA1b binding protein on membrane extracts from different insect species and strains. | column: Kd (nM); Bmax (pmol/mg of protein) || Data obtained from competition experiments, using the purified […] isoform as competitor, are shown in Table 1. PA1b binding activity was present in all insect species, except for the resistant weevil strains and the pea specific pest Bruchus pisorum, regardless of the sensitivity or insensitivity of these insects to PA1b toxicity, as evaluated from our insect bioassays. […] The relative abundance of the binding sites was also slight ...
sequence,measurement,setting,value
"ASCNGVCSPFEMPPCGTSACRCIPVGLVIGYCR NPSG (bicyclic or more) [PA1b, plant peptide of 37 amino acids purified from pea (Pisum sativum) seeds; entomotoxic cystine-knot peptide with three disulfide bonds]",mortality,[1]; highest tested dose 1000 µg/g,27%
same,LD50 estimated by extrapolation,"[1]; extrapolated, without confidence interval",ca. 3500 µg/g
same,LD50 at day 7,"[2]; S. oryzae strain Bouriz, adults",501 [281–984] µg/g
same,LD50 at day 7,"[2]; S. oryzae strain Bénin, adults",446 [251–1584] µg/g
same,LD50 at day 7,"[2]; S. oryzae strain WAA42, adults",489 [290–1318] µg/g
same,LC50,[3],234 [125–630] µg/g
same,survival of L3 larvae,[4]; after one day,100%
same,survival of L3 larvae,[4]; after two days,0%
same,Kd,[5],52 nM
same,Kd,[6],11 nM
same,Kd,[7],20 nM
same,Kd,[8],56 nM
same,Kd,[9],58 nM
same,sensitivity to the toxin,[10],sensitive
same,Kd / binding,"[11]; S. oryzae resistant strains Mex1, GV, China, ISOR3, membrane extracts",no binding detectable
same,Kd,"[11]; S. oryzae strains WAA42, Benin, Bouriz, membrane extracts",2 to 4.5 nM
